Assay results from patent publication US10758639B2, “Methods for the treatment of peri-implantitis” (POLYPID LTD., priority 2014, dated 2020).
Values joined by “and” are separate entries in the source; they are usually repeats but may differ in a detail not shown here. Identical values can stand only once.

System: Staphylococcus aureus biofilm (ATCC 29213)
Experiment: MBEC P&G assay: eradication of an established (preformed) biofilm
Type: cell-based
Conditions: for Log Reduction (Log R): vs. GC (growth control)
Description: The effectiveness of tri-calcium phosphate granules coated with a matrix composition according to embodiments of the invention in eradicating established biofilm was measured using the MBEC™ (Minimum Biofilm Eradication Concentration) Physiology and Genetics Assay.
MBEC™ Test Method Overview: MBEC™ test method specifies the operational parameters required to grow and treat different bacterial biofilms in a high throughput screening assay. The assay device consists of a plastic lid with ninety-six (96) pegs and a corresponding receiver plate with ninety-six (96) individual wells that have a maximum 200 μL working volume. Biofilm is established on the pegs in a batch culture based model (i.e., no flow of nutrients into or out of an individual well) with gentle mixing. The established biofilm is transferred to a new receiver plate for disinfectant efficacy testing.
Test Organisms: Staphylococcus aureus (an osteomyelitis-related strains); source: ATCC 29213; Dilution/Challenge Media: 1,000×TSB+10% human serum 24 hrs; Growth Media/agar: Tryptic Soy Broth/Tryptic Soy agar for 24 hrs Aerobic cond.
TEST METHOD overview: The experimental process for high-throughput antimicrobial susceptibility testing using the hydroxyapatite coated MBEC™ P&G assay. This standard protocol was broken into a series of small steps, each of which is detailed in the sections below.
1. Culture/Inoculum Preparation:
Using a cryogenic stock (at −70° C.), a first sub-culture of Staphylococcus aureus was streaked out on OSA (organism specific agar). The plates were incubated at appropriate growth conditions for 20±2.0 hours and further stored at 4° C.
A second sub-culture taken from the first sub-culture was streaked out on OSA. The plates were incubated at appropriate growth conditions for 20±2.0 hours. An isolated colony from the second sub-culture was aseptically removed from the OSA plate and inoculated into 50 mL of sterile bacterial liquid growth broth, followed by incubation appropriate growth conditions for 20±2.0 hours (at 150 rpm).
The inoculum was adjusted to an approximate cell density of 10^6 CFU/mL by diluting in OSB according to table 1.
Samples (100 μL) of the diluted organism were used for an inoculum check by serially diluting and spot plating on OSA in triplicate.
Preparation of the Challenge Plate:
150 μL of the remaining diluted organism were placed in each of the corresponding wells of an MBEC™ P&G device except the sterility controls (Table 5). The device was placed on an orbital shaker (110 RPM) in a humidified incubator at 37±1° C.
Antimicrobial Challenge for Preformed Biofilm:
The biofilm formed on the lid of the MBEC device was rinsed by dipping the lid into saline (˜30 seconds) to remove planktonic cells. The lid was then put on top of the challenge plate and incubated on a rotary shaker at 110 rpm at 35±2° C. for 24±2 hours.
After incubation (specified above), planktonic cells were rinsed off the biofilm by dipping the lid into saline (˜20-30 seconds). The lid was then transferred to a neutralizer/recovery plate and put in a sonicator (˜30 minutes) to dislodge surviving biofilm.
Following sonication, 100 μL from each well of the MBEC™ plate, were put into the first 12 empty wells of the first row of a 96 well-micro titer plate and were further diluted by 10 fold down each of the 8 rows (10^0-10^7 dilution). 5 μL from each well were then used for spotting prepared OSA plates. The agar plates were incubated at 37±1° C. and counted after approximately 24-48 hours of incubation. The arithmetic mean of the number of colonies counted on the plates was calculated.
100 μL of the sterile neutralizer was added to each well of the recovery plate to top up the volume back to 200 μL. The refilled plate is incubated at 35±2° C. for 24±2 hours, after which the plates were analyzed using a plate reader.
The log density for one peg was calculated as follows:
LOG10 (CFU/peg)=LOG10 [(XB) (D)] where: X=mean CFU; B=volume plated (0.02 mL) and D=dilution. […]

Substance: Gentamicin [D]
- Average Log10 CFU/peg recoveries (0.5 μg): 3.48 Log10 CFU/peg
- Log10 CFU/peg recoveries, replicates 1-3 (0.5 μg): 3.90 Log10 CFU/peg and 2.90 Log10 CFU/peg and 3.64 Log10 CFU/peg
- Average Log10 CFU/peg recoveries (1.0 μg): 3.21 Log10 CFU/peg
- Log10 CFU/peg recoveries, replicates 1-3 (1.0 μg): 4.72 Log10 CFU/peg and 2.60 Log10 CFU/peg and 2.30 Log10 CFU/peg
- Average Log10 CFU/peg recoveries (2.0 μg): 1.69 Log10 CFU/peg
- Log10 CFU/peg recoveries, replicates 1-3 (2.0 μg): 2.30 Log10 CFU/peg and 0.00 Log10 CFU/peg and 2.78 Log10 CFU/peg
- Average Log10 CFU/peg recoveries (4.0 μg): 1.31 Log10 CFU/peg
- Log10 CFU/peg recoveries, replicates 1-3 (4.0 μg): 1.61 Log10 CFU/peg and 2.30 Log10 CFU/peg and 0.00 Log10 CFU/peg
- Average Log10 CFU/peg recoveries (8.0 μg): 0.00 Log10 CFU/peg
- Log10 CFU/peg recoveries, replicates 1-3 (8.0 μg): 0.00 Log10 CFU/peg
- Average Log10 CFU/peg recoveries (16 μg): 0.00 Log10 CFU/peg
- Log10 CFU/peg recoveries, replicates 1-3 (16 μg): 0.00 Log10 CFU/peg
- Average Log10 CFU/peg recoveries (32 μg): 0.00 Log10 CFU/peg
- Log10 CFU/peg recoveries, replicates 1-3 (32 μg): 0.00 Log10 CFU/peg
- Log Reduction (Log R) (0.5 μg): 1.11 LOG10
- Log Reduction (Log R) (1.0 μg): 1.38 LOG10
- Log Reduction (Log R) (2.0 μg): 2.90 LOG10
- Log Reduction (Log R) (4.0 μg): 3.29 LOG10
- Log Reduction (Log R) (8.0 μg): 4.59 LOG10
- Log Reduction (Log R) (16 μg): 4.59 LOG10
- Log Reduction (Log R) (32 μg): 4.59 LOG10
